Source: ChEMBL document CHEMBL1641539 (Bioorg Med Chem Lett, 2011)

What was measured:
[1] = target: Tyrosine-protein kinase Lck (Homo sapiens) (UniProt P06239); assay: Inhibition of human Lck at 10 uM after 60 mins by TR-FRET assay; conditions: values are per cent of control
[2] = test system: Angiopoietin-1 receptor (Homo sapiens), Q02763 [R849W]; assay: Inhibition of human Tie2 R849W mutant at 10 uM after 60 mins by TR-FRET assay; values are per cent of control
[3] = target: G protein-coupled receptor kinase 5 (Homo sapiens) (UniProt P34947); assay: Inhibition of human GRK5 at 10 uM after 60 mins by TR-FRET assay; values are per cent of control
[4] = target: CDK6/cyclin D3 (Homo sapiens) (UniProt P30281+Q00534); assay: Inhibition of human CDK6/cyclinD3 at 10 uM after 60 mins by TR-FRET assay; values are per cent of control
[5] = target: Ribosomal protein S6 kinase alpha-2 (Homo sapiens) (UniProt Q15349); assay: Inhibition of human Rsk3 at 10 uM after 60 mins by TR-FRET assay; conditions: values are per cent of control
[6] = target: Ephrin type-B receptor 4 (Homo sapiens) (UniProt P54760); assay: Inhibition of human EphB4 at 10 uM after 60 mins by TR-FRET assay; values are per cent of control
[7] = target: T1, Serine/threonine-protein kinase 3 (Homo sapiens) (UniProt Q13188); assay: Inhibition of human MST2 at 10 uM after 60 mins by TR-FRET assay; conditions: values are per cent of control
T1 sequence (whole entry): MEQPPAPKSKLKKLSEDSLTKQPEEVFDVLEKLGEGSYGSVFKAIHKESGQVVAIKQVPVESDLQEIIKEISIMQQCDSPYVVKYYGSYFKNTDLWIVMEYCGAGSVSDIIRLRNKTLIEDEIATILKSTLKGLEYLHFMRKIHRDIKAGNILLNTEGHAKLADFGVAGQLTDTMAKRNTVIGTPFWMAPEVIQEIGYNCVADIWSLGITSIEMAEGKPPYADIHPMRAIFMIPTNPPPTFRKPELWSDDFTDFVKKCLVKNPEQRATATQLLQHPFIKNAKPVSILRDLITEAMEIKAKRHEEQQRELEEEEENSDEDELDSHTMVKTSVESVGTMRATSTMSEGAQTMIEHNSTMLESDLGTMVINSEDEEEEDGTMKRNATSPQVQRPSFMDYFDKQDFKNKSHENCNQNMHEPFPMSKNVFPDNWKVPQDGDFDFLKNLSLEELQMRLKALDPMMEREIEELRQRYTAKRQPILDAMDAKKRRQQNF

[8] = target: Glycogen synthase kinase-3 beta (Homo sapiens) (UniProt P49841); assay: Inhibition of human GSK3-beta at 10 uM after 60 mins by TR-FRET assay; values are per cent of control
[9] = target: Serine/threonine-protein kinase TAO3 (Homo sapiens) (UniProt Q9H2K8); assay: Inhibition of human TAO3 at 10 uM after 60 mins by TR-FRET assay; values are per cent of control
[10] = target: Ephrin type-A receptor 7 (Homo sapiens) (UniProt Q15375); assay: Inhibition of human EphA7 at 10 uM after 60 mins by TR-FRET assay; values are per cent of control
[11] = target: Platelet-derived growth factor receptor alpha (Homo sapiens) (UniProt P16234); assay: Inhibition of human PDGFRalpha at 10 uM after 60 mins by TR-FRET assay; values are per cent of control
[12] = target: Tyrosine-protein kinase Mer (Homo sapiens) (UniProt Q12866); assay: Inhibition of human Mer at 10 uM after 60 mins by TR-FRET assay; values are per cent of control
[13] = target: Ephrin type-A receptor 4 (Homo sapiens) (UniProt P54764); assay: Inhibition of human EphA4 at 10 uM after 60 mins by TR-FRET assay; values are per cent of control
[14] = test system: Epidermal growth factor receptor (Homo sapiens), P00533 [L858R,T790M]; conditions: 10 uM
Description: Inhibition of human EGFR T790M, L858R mutant at 10 uM after 60 mins by TR-FRET assay

[15] = target: Mitogen-activated protein kinase kinase kinase kinase 2 (Homo sapiens) (UniProt Q12851); assay: Inhibition of human GCK at 10 uM after 60 mins by TR-FRET assay; values are per cent of control
[16] = target: Receptor-interacting serine/threonine-protein kinase 2 (Homo sapiens) (UniProt O43353); assay: Inhibition of human RIPK2 at 10 uM after 60 mins by TR-FRET assay; values are per cent of control
[17] = target: Mitogen-activated protein kinase 10 (Homo sapiens, UniProt P53779); assay: Inhibition of human JNK3 at 10 uM after 60 mins by TR-FRET assay; values are per cent of control
[18] = target: Ribosomal protein S6 kinase alpha-5 (Homo sapiens) (UniProt O75582); assay: Inhibition of human MSK1 at 10 uM after 60 mins by TR-FRET assay; conditions: values are per cent of control
[19] = target: Dual specificity mitogen-activated protein kinase kinase 7 (Homo sapiens) (UniProt O14733); assay: Inhibition of human MKK7beta at 10 uM after 60 mins by TR-FRET assay; conditions: values are per cent of control
[20] = target: Cyclin-dependent kinase 2/cyclin E (Homo sapiens) (UniProt P24864+P24941+O96020); assay: Inhibition of human CDK2/cyclinE at 10 uM after 60 mins by TR-FRET assay; values are per cent of control
[21] = target: Serine/threonine-protein kinase WNK3 (Homo sapiens) (UniProt Q9BYP7); assay: Inhibition of human WNK3 at 10 uM after 60 mins by TR-FRET assay; values are per cent of control
[22] = target: Ephrin type-A receptor 3 (Homo sapiens) (UniProt P29320); assay: Inhibition of human EphA3 at 10 uM after 60 mins by TR-FRET assay; values are per cent of control
[23] = target: Serine/threonine-protein kinase N2 (Homo sapiens) (UniProt Q16513); assay: Inhibition of human PRK2 at 10 uM after 60 mins by TR-FRET assay; values are per cent of control
[24] = target: Tyrosine-protein kinase Fer (Homo sapiens) (UniProt P16591); assay: Inhibition of human Fer at 10 uM after 60 mins by TR-FRET assay; values are per cent of control
[25] = target: Cytoplasmic tyrosine-protein kinase BMX (Homo sapiens) (UniProt P51813); assay: Inhibition of human Bmx at 10 uM after 60 mins by TR-FRET assay; values are per cent of control
Sequence of Cytoplasmic tyrosine-protein kinase BMX (Homo sapiens) (P51813 whole entry): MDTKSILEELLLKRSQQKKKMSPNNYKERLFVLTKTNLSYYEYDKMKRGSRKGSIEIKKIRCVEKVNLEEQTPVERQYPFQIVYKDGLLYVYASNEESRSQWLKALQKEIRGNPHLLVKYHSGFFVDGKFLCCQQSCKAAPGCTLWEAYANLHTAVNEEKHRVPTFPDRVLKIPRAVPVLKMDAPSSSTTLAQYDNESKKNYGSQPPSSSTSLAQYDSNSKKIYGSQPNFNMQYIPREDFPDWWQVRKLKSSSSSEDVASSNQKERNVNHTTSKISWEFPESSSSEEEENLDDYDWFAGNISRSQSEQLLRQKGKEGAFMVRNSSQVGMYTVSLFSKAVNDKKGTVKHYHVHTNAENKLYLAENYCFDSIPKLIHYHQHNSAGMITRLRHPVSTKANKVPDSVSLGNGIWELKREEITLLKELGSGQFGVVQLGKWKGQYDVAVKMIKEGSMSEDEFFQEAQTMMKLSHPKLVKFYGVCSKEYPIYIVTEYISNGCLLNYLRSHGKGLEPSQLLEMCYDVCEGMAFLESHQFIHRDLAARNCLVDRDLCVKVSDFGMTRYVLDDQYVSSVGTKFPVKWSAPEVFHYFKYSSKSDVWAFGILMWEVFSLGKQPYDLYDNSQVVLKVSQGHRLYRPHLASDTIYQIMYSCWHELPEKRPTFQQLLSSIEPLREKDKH

Sequence of Epidermal growth factor receptor (Homo sapiens), P00533 [L858R,T790M] (P00533 whole entry T790M/L858R, looked up): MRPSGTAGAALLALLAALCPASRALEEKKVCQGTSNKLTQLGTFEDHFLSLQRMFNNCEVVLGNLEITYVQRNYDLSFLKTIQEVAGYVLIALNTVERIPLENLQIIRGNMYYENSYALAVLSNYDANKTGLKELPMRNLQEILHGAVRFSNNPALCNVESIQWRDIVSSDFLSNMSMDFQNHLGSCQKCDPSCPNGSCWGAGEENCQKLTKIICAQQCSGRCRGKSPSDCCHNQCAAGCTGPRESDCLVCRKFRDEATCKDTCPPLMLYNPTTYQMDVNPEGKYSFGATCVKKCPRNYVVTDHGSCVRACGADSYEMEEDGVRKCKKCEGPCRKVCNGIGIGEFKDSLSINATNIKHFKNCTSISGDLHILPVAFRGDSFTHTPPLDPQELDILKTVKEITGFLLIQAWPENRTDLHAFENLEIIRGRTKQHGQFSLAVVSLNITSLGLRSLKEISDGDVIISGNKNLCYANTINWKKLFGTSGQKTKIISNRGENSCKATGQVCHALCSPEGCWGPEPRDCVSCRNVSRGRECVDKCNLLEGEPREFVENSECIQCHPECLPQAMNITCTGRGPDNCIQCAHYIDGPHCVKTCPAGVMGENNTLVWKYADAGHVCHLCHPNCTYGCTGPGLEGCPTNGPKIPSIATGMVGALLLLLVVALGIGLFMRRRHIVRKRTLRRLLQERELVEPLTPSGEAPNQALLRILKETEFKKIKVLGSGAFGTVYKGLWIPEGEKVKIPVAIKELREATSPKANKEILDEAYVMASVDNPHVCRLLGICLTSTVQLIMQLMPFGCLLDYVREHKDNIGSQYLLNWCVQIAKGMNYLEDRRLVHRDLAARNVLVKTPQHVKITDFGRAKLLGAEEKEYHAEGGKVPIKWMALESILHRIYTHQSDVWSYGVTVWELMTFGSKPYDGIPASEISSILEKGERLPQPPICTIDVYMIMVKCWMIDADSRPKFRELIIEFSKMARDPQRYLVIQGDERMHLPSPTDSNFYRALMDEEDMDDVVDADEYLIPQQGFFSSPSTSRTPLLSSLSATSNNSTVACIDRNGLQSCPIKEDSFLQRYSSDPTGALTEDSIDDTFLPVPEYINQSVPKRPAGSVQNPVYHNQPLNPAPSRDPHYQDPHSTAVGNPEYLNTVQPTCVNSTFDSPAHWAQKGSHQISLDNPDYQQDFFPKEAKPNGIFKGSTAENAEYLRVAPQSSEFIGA
Sequence of Mitogen-activated protein kinase kinase kinase kinase 2 (Homo sapiens) (Q12851 whole entry): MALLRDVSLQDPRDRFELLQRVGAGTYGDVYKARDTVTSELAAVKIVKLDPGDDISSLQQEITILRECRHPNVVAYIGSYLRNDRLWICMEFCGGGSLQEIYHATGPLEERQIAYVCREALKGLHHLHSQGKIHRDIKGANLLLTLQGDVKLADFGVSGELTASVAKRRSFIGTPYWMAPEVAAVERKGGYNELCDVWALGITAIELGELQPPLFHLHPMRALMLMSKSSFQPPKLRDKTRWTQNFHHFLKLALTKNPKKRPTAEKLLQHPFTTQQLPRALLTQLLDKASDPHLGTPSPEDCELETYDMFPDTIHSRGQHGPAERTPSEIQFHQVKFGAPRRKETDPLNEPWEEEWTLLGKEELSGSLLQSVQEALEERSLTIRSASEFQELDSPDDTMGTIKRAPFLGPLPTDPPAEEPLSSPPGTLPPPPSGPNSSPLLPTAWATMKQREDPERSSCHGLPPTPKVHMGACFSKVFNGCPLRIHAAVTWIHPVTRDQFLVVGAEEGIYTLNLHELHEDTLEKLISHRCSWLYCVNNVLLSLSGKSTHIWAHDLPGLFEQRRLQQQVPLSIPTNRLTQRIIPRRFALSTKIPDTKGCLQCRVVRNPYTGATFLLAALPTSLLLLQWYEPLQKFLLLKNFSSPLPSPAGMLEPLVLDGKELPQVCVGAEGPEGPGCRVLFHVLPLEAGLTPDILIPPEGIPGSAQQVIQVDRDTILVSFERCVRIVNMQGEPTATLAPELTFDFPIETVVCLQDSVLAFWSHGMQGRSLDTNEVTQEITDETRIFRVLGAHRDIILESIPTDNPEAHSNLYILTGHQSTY
Sequence of Ephrin type-B receptor 4 (Homo sapiens) (P54760 whole entry): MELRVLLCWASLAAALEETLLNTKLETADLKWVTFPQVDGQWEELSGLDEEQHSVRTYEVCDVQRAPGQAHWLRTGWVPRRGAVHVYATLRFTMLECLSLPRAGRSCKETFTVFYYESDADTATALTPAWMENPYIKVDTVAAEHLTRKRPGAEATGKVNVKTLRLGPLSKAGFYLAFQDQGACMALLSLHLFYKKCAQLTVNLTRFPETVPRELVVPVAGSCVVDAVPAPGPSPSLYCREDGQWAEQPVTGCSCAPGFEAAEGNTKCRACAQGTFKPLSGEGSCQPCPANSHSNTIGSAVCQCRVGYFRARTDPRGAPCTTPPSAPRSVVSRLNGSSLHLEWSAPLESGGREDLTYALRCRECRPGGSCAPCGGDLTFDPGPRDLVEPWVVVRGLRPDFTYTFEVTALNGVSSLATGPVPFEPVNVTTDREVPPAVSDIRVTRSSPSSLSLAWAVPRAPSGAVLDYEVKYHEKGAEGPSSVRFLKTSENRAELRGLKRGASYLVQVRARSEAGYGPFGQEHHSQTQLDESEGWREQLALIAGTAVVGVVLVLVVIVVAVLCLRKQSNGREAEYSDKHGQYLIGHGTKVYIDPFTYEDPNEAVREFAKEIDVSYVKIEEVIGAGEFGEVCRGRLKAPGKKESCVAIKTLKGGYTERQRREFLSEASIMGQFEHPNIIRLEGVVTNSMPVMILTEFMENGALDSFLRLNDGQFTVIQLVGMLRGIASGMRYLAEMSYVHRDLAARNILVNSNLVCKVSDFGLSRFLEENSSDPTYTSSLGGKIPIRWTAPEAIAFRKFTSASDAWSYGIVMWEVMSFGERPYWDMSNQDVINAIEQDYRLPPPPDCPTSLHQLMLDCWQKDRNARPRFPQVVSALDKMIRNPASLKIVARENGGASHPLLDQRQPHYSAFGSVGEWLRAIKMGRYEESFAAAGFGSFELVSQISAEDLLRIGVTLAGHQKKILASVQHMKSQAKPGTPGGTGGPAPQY
Sequence of Receptor-interacting serine/threonine-protein kinase 2 (Homo sapiens) (O43353 whole entry): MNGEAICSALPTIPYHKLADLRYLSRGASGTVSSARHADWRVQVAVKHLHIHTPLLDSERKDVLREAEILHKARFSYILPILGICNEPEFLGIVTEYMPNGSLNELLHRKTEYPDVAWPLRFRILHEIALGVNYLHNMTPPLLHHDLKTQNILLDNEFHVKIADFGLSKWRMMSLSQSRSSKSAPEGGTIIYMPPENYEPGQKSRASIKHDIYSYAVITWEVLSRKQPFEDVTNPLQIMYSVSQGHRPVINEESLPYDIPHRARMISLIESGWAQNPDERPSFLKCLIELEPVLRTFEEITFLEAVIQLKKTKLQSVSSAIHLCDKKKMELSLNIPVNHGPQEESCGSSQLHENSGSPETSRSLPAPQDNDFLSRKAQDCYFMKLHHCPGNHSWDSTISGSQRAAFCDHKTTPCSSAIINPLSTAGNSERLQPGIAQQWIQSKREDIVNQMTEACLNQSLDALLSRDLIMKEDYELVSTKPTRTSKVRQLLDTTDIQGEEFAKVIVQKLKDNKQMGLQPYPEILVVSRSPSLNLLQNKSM
Sequence of Mitogen-activated protein kinase 10 (P53779 whole entry): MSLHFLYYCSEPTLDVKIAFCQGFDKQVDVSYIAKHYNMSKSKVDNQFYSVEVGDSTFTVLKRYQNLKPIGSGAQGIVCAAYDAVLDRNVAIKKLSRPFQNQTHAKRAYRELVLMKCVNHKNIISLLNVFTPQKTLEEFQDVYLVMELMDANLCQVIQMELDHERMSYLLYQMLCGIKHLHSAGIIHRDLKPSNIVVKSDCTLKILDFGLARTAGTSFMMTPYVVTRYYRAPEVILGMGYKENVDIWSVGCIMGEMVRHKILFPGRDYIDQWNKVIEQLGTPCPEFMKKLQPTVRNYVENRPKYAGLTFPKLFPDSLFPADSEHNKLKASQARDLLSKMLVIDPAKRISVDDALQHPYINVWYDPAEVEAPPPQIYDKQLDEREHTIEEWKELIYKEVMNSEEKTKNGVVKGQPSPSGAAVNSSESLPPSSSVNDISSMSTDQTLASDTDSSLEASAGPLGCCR

S=c1[nH]nc(-c2ccncc2)n1-c1ccc2ccccc2c1
residual activity [1]: 76% | residual activity [2]: 94% | residual activity [3]: 115% | residual activity [4]: 102% | residual activity [5]: 90% | residual activity [6]: 108% | residual activity [7]: 103% | residual activity [8]: 90% | residual activity [9]: 91% | residual activity [10]: 65% | residual activity [11]: 99% | residual activity [12]: 107% | residual activity [13]: 127% | inhibition [14]: 88% | residual activity [15]: 103% | residual activity [16]: 111% | residual activity [17]: 4% | residual activity [18]: 114% | residual activity [19]: 126% | residual activity [20]: 108% | residual activity [21]: 100% | residual activity [22]: 90% | residual activity [23]: 112% | residual activity [24]: 99% | residual activity [25]: 136%
